{"source": "patent US20230088704A1", "about": "“A PHARMACEUTICAL COMBINATION FOR THE TREATMENT OF A CANCER” (ABILITY PHARMACEUTICALS S.L., priority 2020, published 2023)", "key": {"OPM2 cells": {"test_system": "OPM2 cells", "assay": "Cell viability (MTT) and combination index, ABTL0812 with bortezomib", "format": "cell-based", "conditions": "ABTL0812 5 μM, Bortezomib 1 nM, alone or combined; 48h", "procedure": "(§1) Methods: JJN-3 and OPM2 cells were seeded in 24-well plates and treated with ABTL0812 (5 μM), bortezomib (0.5 and 1 nM respectively) or a combination of both drugs and left in the incubator for 48h (0.5% FBS). Cell viability was studied by the MTT assay and combination index was determined to evaluate a possible synergism.\n(§2) Cell viability was evaluated in all cases by MTT assay and the Combination Index (CI), to evaluate synergism, was calculated according to the method of Chou and Talalay (Chou 2006; Chou 2010), as follows: CI=(D)1/(Dx)1+(D)2/(Dx)2, where CI<1, =1, and >1 indicate synergism, additive effect, and antagonism, respectively. In the denominator, (Dx)1 is for D1 “alone” that inhibits a system x %, and (Dx)2 is for D2 “alone” that inhibits a system x %."}, "JJN-3 cells": {"test_system": "JJN-3 cells", "assay": "Cell viability (MTT) and combination index, ABTL0812 with bortezomib", "format": "cell-based", "conditions": "ABTL0812 5 μM, Bortezomib 0.5 nM, alone or combined; 48h", "procedure": "as §1, §2"}, "PDL1": {"test_system": "PDL1", "assay": "PDL1 expression in cancer cells by flow cytometry (Example 6.2)", "format": "cell-based, human", "conditions": "Panc-1 cells; ABTL0812 50 μM, IFNγ 2.5 ng/ml or both", "procedure": "Methods: Human cancer cell lines were incubated with 100 μM of ABTL0812 during 48 hours and collected for staining with anti-PDL1 antibody labeled with a fluorophore. After staining of cells with anti-PDL1 antibody, cells were run on Flow Cytometry (Facs Canto) to analyzed PDL1 levels in cancer cells. Additionally, we incubated Panc-1 cells with ABTL0812 (50 μM), IFNγ (2.5 ng/ml), a master regulator of PDL1 expression or a combination with both. Then, cells were collected, stained with anti-PDL1 antibody and analyzed by Flow Cytometry for the expression of PDL1."}, "Ishikawa cells [1]": {"test_system": "Ishikawa cells", "format": "in vivo", "conditions": "ABTL0812 oral 120 mg/kg/day; Doxorubicin 5 mg/kg i.p. once a week", "procedure": "Methods: Mice were injected with 4×10^6 Ishikawa cells in one flank to induce tumor formation. […] ABTL0812 was administered by the oral route at 120 mg/kg/day. Doxorubicin 5 mg/kg was administered intra-peritoneally once a week. Tumor volume and body weight were monitored 3 times a week."}, "Ishikawa cells [2]": {"test_system": "Ishikawa cells", "assay": "Human endometrial cancer xenograft, ABTL0812 with olaparib", "format": "in vivo", "conditions": "ABTL0812 oral 120 mg/kg/day; Olaparib oral 50 mg/kg/day", "procedure": "Methods: Mice were injected with 4×10^6 Ishikawa cells in one flank to induce tumor formation. […] Olaparib was administered by the oral route 50 mg/kg/day. Tumor volume and body weight were monitored 3 times a week."}, "Ishikawa cells [3]": {"test_system": "Ishikawa cells", "assay": "Human endometrial cancer xenograft, ABTL0812 with bevacizumab", "format": "in vivo", "conditions": "ABTL0812 oral 120 mg/kg/day; Bevacizumab ip 100 μg/dose every four days", "procedure": "Methods: Mice were injected with 4×10^6 Ishikawa cells in one flank to induce tumor formation. […] Bevacizumab was administered ip at 100 μg/dose, every four days up to four administration. Tumor volume and body weight were monitored 3 times a week."}}, "note": "Read-outs that look alike come from different tables or passages of the source.", "data": [{"compound": "CC(C)C[C@H](NC(=O)[C@H](Cc1ccccc1)NC(=O)c1cnccn1)B(O)O", "note": "[Bortezomib, reference compound]", "values": [{"measurement": "cell death", "setting": "OPM2 cells", "result": "around 10%"}, {"measurement": "cell death", "setting": "JJN-3 cells", "result": "~15", "unit": "%"}]}, {"compound": "IFNγ: well described master regulator of PDL1 expression [reference compound]", "values": [{"measurement": "PDL1 levels", "setting": "PDL1", "result": "significantly higher levels of PDL1 compared with ABTL0812"}]}, {"compound": "COc1cccc2c1C(=O)c1c(O)c3c(c(O)c1C2=O)C[C@@](O)(C(=O)CO)C[C@@H]3O[C@H]1C[C@H](N)[C@H](O)[C@H](C)O1", "note": "[doxorubicin, reference compound]", "values": [{"measurement": "tumor volume", "setting": "Ishikawa cells [1]", "result": "significantly reduced tumor volume"}]}, {"compound": "O=C(c1cc(Cc2n[nH]c(=O)c3ccccc23)ccc1F)N1CCN(C(=O)C2CC2)CC1", "note": "[olaparib, reference compound]", "values": [{"measurement": "tumor volume", "setting": "Ishikawa cells [2]", "result": "significantly reduced tumor volume"}]}, {"compound": "bevacizumab [reference compound]", "values": [{"measurement": "tumor volume", "setting": "Ishikawa cells [3]", "result": "significantly reduced tumor volume"}]}]}
